Data reported in patent US8318223B2, “Method for producing modified milk” (Ajinomoto Co., Inc., priority 2008, dated 2012).
Like-named read-outs stand apart in the source and are kept apart here.

Molecular target: T1, PG (Chryseobacterium proteolyticum, UniProt Q9AQQ8)
T1 construct: made in house
T1 sequence (Q9AQQ8 136-320): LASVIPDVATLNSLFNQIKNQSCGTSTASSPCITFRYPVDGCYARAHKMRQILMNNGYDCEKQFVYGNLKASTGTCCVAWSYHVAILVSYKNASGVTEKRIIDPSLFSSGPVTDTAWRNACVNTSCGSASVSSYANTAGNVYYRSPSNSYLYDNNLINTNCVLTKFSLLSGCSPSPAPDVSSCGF
Assay type: biochemical
Method: Calcium chelating materials were added to LTLT sterilized milk (66° C., 30 minutes: Takanashi low temperature sterilized milk) properly. The reactivity of PG with each milk sample was measured as follows. To each milk sample was added 0.4 U/ml (corresponding to about 12 u per 1 g of milk protein) of PG (a purified product described in Experimental Example 1) and incubated at 50° C. for 60 minutes. The enzyme reaction was ceased by adding 12% TCA the amount of which is the same as the reacting solution and centrifuged (12,000 rpm, 5° C., 5 minutes) to measure the amount of ammonium in the supernatant using an ammonium quantitative measurement kit, F-kit (Roche).
Alkaline materials were added to LTLT sterilized milk (66° C., 30 minutes: Takanashi low temperature sterilized milk) properly so as to adjust the pH 7 to 8.4. The reactivity of PG with each milk sample was measured as in Example 1.
Glutathione or cysteine (Nacalai Tesque, Inc.) as a thiol-type reducing agent was added to LTLT sterilized milk (66° C., 30 minutes: Takanashi low temperature sterilized milk) properly. The reactivity of PG to each milk was measured as in Example 1. […] By the same manner, the reactivity of PG to milk was measured by adding glutathione yeast extract (AROMILD UG8, Kohjin Co., Ltd.) to milk at different concentrations.

[1] = additive 0.4% in LTLT milk, PG 0.4 U/ml, 50° C., 60 minutes, control 22.1
[2] = additive 0.5% in LTLT milk, PG 0.4 U/ml, 50° C., 60 minutes, control 22.1
[3] = alkaline additive 0.20% in LTLT milk, control (pH 6.67) 13.6
[4] = alkaline additive […] in LTLT milk, control (pH 6.67) 13.6
[5] = alkaline additive 0.30% in LTLT milk, control (pH 6.67) 13.6
[6] = alkaline additive 0.25% in LTLT milk, control (pH 6.67) 13.6

O=C([O-])CN(CCN(CC(=O)[O-])CC(=O)[O-])CC(=O)[O-].[Na+].[Na+].[Na+].[Na+] [EDTA, tetrasodium ethylenediaminetetraacetate]
PG reactivity (%) (additive 20 mM in LTLT milk, PG 0.4 U/ml, 50° C., 60 minutes, control 22.1): 55.9%

O=C([O-])CC(O)(CC(=O)[O-])C(=O)[O-].[Na+].[Na+].[Na+] [Trisodium citrate]
PG reactivity (%) (additive 0.2% in LTLT milk, PG 0.4 U/ml, 50° C., 60 minutes, control 22.1): 40.5%
PG reactivity (%) [1]: 47.3%
PG reactivity (%) [2]: 42.8%

O=C([O-])[O-].[K+].[K+] [Potassium carbonate]
PG reactivity (%) (alkaline additive 0.13% in LTLT milk, control (pH 6.67) 13.6): 62.5%

O=C([O-])[O-].[Na+].[Na+] [Sodium carbonate]
PG reactivity (%) (alkaline additive 0.10% in LTLT milk, control (pH 6.67) 13.6): 61.7%
PG reactivity (%) [3]: 65%
PG reactivity (%) [4]: 72.7%

O=C([O-])O.[Na+] [Sodium hydrogen carbonate]
PG reactivity (%) [5]: 58.1%
PG reactivity (%) (alkaline additive 1.00% in LTLT milk, control (pH 6.67) 13.6): 57.8%

N=C(N)NCCC[C@H](N)C(=O)O [Arg (amino acid), arginine]
PG reactivity (%) [3]: 54.1%
PG reactivity (%) [6]: 67%
PG reactivity (%) [5]: 76.2%
PG reactivity (%) (alkaline additive 0.40% in LTLT milk, control (pH 6.67) 13.6): 75%

sodium γ-polyglutamate [γ-PGA]
PG reactivity (%) [1]: 49.8%
PG reactivity (%) [2]: 58.1%
PG reactivity (%) (additive 0.75% in LTLT milk, PG 0.4 U/ml, 50° C., 60 minutes, control 22.1): 79.2%
PG reactivity (%) (additive 1% in LTLT milk, PG 0.4 U/ml, 50° C., 60 minutes, control 22.1): 96.1%

O=P([O-])([O-])[O-].[Na+].[Na+].[Na+] [Trisodium phosphate]
PG reactivity (%) [3]: 65.8%
PG reactivity (%) [6]: 72%
PG reactivity (%) [4]: 54.9%
